Data: patent US6930106B2, “Inhibitors of HCV NS5B polymerase” (Pharmacia & UpJohn Company, priority 2002, dated 2005)
Counter-ions that a name gives are not always drawn.

Biological target: HCV NS5b RNA dependent RNA polymerase (Hepatitis C virus genotype 1a, UniProt P27958)
Assay: HCV NS5b RNA dependent RNA polymerase inhibition assay (3H-GTP incorporation, scintillation proximity)
Assay type: biochemical
Conditions: inhibition of HCV NS5b polymerase activity; Table 2; read-out: concentration in micromolar required for 50% inhibition
Protocol: Compounds of the present invention are evaluated for inhibition of HCV NS5b RNA dependent RNA polymerase activity in assays comprised of a suitable buffer (e.g. 20 mM Tris-HCl pH 7.6), primed or unprimed RNA templates, GTP, ATP, CTP, and UTP, MnCl2 or MgCl2, and reducing agent such as 10 mM dithiothreitol or 2-mercaptoethanol. The assay buffer may contain salts such as ammonium acetate, KCl, or NaCl, and nonionic or zwitterionic detergents such as Tween or CHAPS. The incorporation of nucleotides into the complementary RNA strand may be monitored by the incorporation of radiolabeled NTP (e.g. ^3H labeled GTP). Suitable RNA templates for de novo initiation in the presence of 20-50 μM GTP or ATP are the homopolymers poly rC and poly rU, respectively. Heteropolymer RNA templates with 1-3 cytidine (C) bases or 1-3 uridine (U) bases at the 3′ terminus of the template may also be used for de novo initiation. Primed RNA templates such as poly rC primed with oligo rG or oligo dG, and poly rA primed with oligo rU may also be used to detect polymerase activity. The primers may be any length greater than 10 bases. A biotin residue may be added to the 5′ end of the template or the 5′ end of the primer to capture the template and the newly synthesized, complementary strand on avidin coated spheres. […]

HCV NS5b RNA dependent RNA polymerase, sequence (P27958 2421-3011): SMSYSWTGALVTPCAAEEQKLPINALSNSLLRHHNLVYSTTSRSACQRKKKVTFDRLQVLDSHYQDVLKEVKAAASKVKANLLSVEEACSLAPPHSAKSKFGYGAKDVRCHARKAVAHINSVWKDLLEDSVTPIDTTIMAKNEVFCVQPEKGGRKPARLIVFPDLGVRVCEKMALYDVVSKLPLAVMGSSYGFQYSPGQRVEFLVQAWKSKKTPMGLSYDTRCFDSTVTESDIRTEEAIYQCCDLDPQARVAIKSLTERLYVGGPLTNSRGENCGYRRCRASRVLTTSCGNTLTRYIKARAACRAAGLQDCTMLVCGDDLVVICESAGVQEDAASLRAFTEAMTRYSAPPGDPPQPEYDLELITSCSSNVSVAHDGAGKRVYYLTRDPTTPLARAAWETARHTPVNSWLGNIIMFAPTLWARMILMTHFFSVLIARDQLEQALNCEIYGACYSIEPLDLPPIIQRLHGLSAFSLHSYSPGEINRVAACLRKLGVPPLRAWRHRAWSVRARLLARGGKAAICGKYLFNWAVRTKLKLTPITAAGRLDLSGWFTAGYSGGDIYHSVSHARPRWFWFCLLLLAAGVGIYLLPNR

| Structure (SMILES) | IC50 |
| --- | --- |
| NCc1ccc(Nc2ccc(C(F)(F)F)cc2NC(=O)c2cc(Cl)c(Cl)cc2C(=O)O)cc1 [i., 2-[[[2-[[4-(Aminomethyl)phenyl]amino]-5-(trifluoromethyl)phenyl]amino]carbonyl]-4,5-dichlorobenzoic acid monohydrochloride] | 1.42 µM |
| N#Cc1ccc(Nc2ccc(C(F)(F)F)cc2NC(=O)c2ccccc2C(=O)O)cc1 [xvii., 2-({[2-[(4-cyanophenyl)amino]-5-(trifluoromethyl)phenyl]amino}carbonyl)benzoic acid] | 1.74 µM |
